Experimental data as given in patent US10821195B2, “Compositions for therapeutics, targeted PET imaging and methods of their use” (Memorial Sloan Kettering Cancer Center, priority 2015, dated 2020).

Key:
Log D7.4 in octanol/PBS = type: physicochemical
[1] = Hydroxyapatite stability (competition); type: physicochemical; conditions: after 6 d, 37° C.
Experimental: Additionally, each day the mixtures were vortexed to ensure proper mixing. At the respective time point, the aliquot was vortexed, centrifuged, vortexed, filtered (0.45 μm, 13 mm, nylon syringe filter, Fisher Scientific, Waltham, Mass.), and the filter washed with 1 mL of 50:50 EtOH in water. The filter (bound to hydroxyapatite), reaction tube, and filtrate (bound to the chelator) were counted separately on a gamma counter to determine the amount of activity in each.

[2] = Biodistribution of ^177Lu-HOPO and ^177Lu-DOTA in healthy female nude mice; type: in vivo
Experimental: Therefore, healthy female nude mice were injected with each of the complexes in order to determine their relative in vivo stabilities. The results are tabulated in Table 3 and are shown as graphs in FIG. 21A, FIG. 21B and FIG. 22.
Aliquots of the injectate (10 μL) were weighed and counted as standards with the tissues. The injection syringes were weighed pre- and post-injection to determine the weight of injectate and the activity according to the dose calibrator was measured before and after injection. All of the tissues were weighed and counted with the standards. The standards were used to obtain the counts/g injectate, the weights of the injectate were used to determine the total number of counts for the injected dose (ID), the counts of the tissue were used to get the % ID, and the weights of the tissues were used to obtain the % ID/g. Standard averaging and standard deviation calculations were applied.

[3] = Metal ion challenge of ^177Lu-HOPO and ^177Lu-DOTA; type: physicochemical; conditions: 10-fold excess Cu^2+, Fe^3+, Ga^3+, Gd^3+, 6 d
Experimental: The incubations were performed at 37° C. in a thermomixer over the course of 6 d and analyzed by radioTLC using C-18 TLC plates developed with 50 mM DTPA at 1, 3, and 6 d.

With O=C([O-])CN1CCN(CC(=O)[O-])CCN(CC(=O)[O-])CCN(CC(=O)[O-])CC1.[177Lu+3].[H+] [^177Lu-DOTA] the “Log D7.4” value (Log D7.4 in octanol/PBS) was −4.1±0.4, the “complex intact in hydroxyapatite competition” value [1] was > 98% and the Blood/Bone ratio ([2]; 0.5 h) was 5 ± 2. The Kidney/Bone ratio ([2]; 0.5 h) was 13 ± 7, the “L. Intestine/Bone ratio” value ([2]; 0.5 h) was 0.6 ± 0.3 and the Liver/Bone ratio ([2]; 0.5 h) was 2.2 ± 0.7. For the same compound, the Muscle/Bone ratio ([2]; 0.5 h) was 0.9 ± 0.5, the “S. Intestine/Bone ratio” value ([2]; 0.5 h) was 1.6 ± 0.6 and the “biodistribution Bladder” value ([2]; 0.5 h) was 0.691 ± 0.116 % ID/g. For the same compound, the “biodistribution Blood” value ([2]; 0.5 h) was 0.407 ± 0.179 % ID/g, the “biodistribution Bone” value ([2]; 0.5 h) was 0.090 ± 0.026 % ID/g and the “biodistribution Heart” value ([2]; 0.5 h) was 0.142 ± 0.069 % ID/g. The “biodistribution Kidneys” value ([2]; 0.5 h) was 1.121 ± 0.490 % ID/g, the “biodistribution L. Intestine” value ([2]; 0.5 h) was 0.056 ± 0.025 % ID/g and the “biodistribution Liver” value ([2]; 0.5 h) was 0.199 ± 0.033 % ID/g. For the same compound, the “biodistribution Lungs” value ([2]; 0.5 h) was 0.298 ± 0.131 % ID/g, the “biodistribution Muscle” value ([2]; 0.5 h) was 0.085 ± 0.037 % ID/g and the “biodistribution Pancreas” value ([2]; 0.5 h) was 0.080 ± 0.037 % ID/g. The “biodistribution S. Intestine” value ([2]; 0.5 h) was 0.142 ± 0.038 % ID/g, the “biodistribution Spleen” value ([2]; 0.5 h) was 0.103 ± 0.019 % ID/g and the “biodistribution Stomach” value ([2]; 0.5 h) was 0.120 ± 0.035 % ID/g. For the same compound, the Blood/Bone ratio ([2]; 1 h) was 0.6 ± 0.4, the Kidney/Bone ratio ([2]; 1 h) was 30 ± 30 and the “L. Intestine/Bone ratio” value ([2]; 1 h) was 0.26 ± 0.19. The Liver/Bone ratio ([2]; 1 h) was 2.3 ± 1.7, the Muscle/Bone ratio ([2]; 1 h) was 0.4 ± 0.4 and the “S. Intestine/Bone ratio” value ([2]; 1 h) was 1.5 ± 1.1. The “biodistribution Bladder” value ([2]; 1 h) was 0.2962 ± 0.1869 % ID/g, the “biodistribution Blood” value ([2]; 1 h) was 0.0287 ± 0.0038 % ID/g and the “biodistribution Bone” value ([2]; 1 h) was 0.0491 ± 0.0349 % ID/g. The “biodistribution Heart” value ([2]; 1 h) was 0.0142 ± 0.0016 % ID/g, the “biodistribution Kidneys” value ([2]; 1 h) was 1.4402 ± 1.2901 % ID/g and the “biodistribution L. Intestine” value ([2]; 1 h) was 0.0129 ± 0.0015 % ID/g. For the same compound, the “biodistribution Liver” value ([2]; 1 h) was 0.1121 ± 0.0174 % ID/g, the “biodistribution Lungs” value ([2]; 1 h) was 0.0444 ± 0.0175 % ID/g and the “biodistribution Muscle” value ([2]; 1 h) was 0.0219 ± 0.0154 % ID/g. For the same compound, the “biodistribution Pancreas” value ([2]; 1 h) was 0.0143 ± 0.0050 % ID/g, the “biodistribution S. Intestine” value ([2]; 1 h) was 0.0722 ± 0.0209 % ID/g and the “biodistribution Spleen” value ([2]; 1 h) was 0.0410 ± 0.0100 % ID/g. For the same compound, the “biodistribution Stomach” value ([2]; 1 h) was 0.0230 ± 0.0174 % ID/g, the Blood/Bone ratio ([2]; 4 h) was 0.18 ± 0.06 and the Kidney/Bone ratio ([2]; 4 h) was 40 ± 30. For the same compound, the “L. Intestine/Bone ratio” value ([2]; 4 h) was 6 ± 7, the Liver/Bone ratio ([2]; 4 h) was 10 ± 4 and the Muscle/Bone ratio ([2]; 4 h) was 0.74 ± 0.15. For the same compound, the “S. Intestine/Bone ratio” value ([2]; 4 h) was 3 ± 3, the “biodistribution Bladder” value ([2]; 4 h) was 0.1088 ± 0.0148 % ID/g and the “biodistribution Blood” value ([2]; 4 h) was 0.0011 ± 0.0003 % ID/g. For the same compound, the “biodistribution Bone” value ([2]; 4 h) was 0.0060 ± 0.0007 % ID/g, the “biodistribution Heart” value ([2]; 4 h) was 0.0052 ± 0.0016 % ID/g and the “biodistribution Kidneys” value ([2]; 4 h) was 0.2398 ± 0.1571 % ID/g. For the same compound, the “biodistribution L. Intestine” value ([2]; 4 h) was 0.0361 ± 0.0403 % ID/g, the “biodistribution Liver” value ([2]; 4 h) was 0.0614 ± 0.0205 % ID/g and the “biodistribution Lungs” value ([2]; 4 h) was 0.0080 ± 0.0044 % ID/g. The “biodistribution Muscle” value ([2]; 4 h) was 0.0044 ± 0.0007 % ID/g, the “biodistribution Pancreas” value ([2]; 4 h) was 0.0068 ± 0.0038 % ID/g and the “biodistribution S. Intestine” value ([2]; 4 h) was 0.0209 ± 0.0180 % ID/g. The “biodistribution Spleen” value ([2]; 4 h) was 0.0249 ± 0.0009 % ID/g, the “biodistribution Stomach” value ([2]; 4 h) was 0.0038 ± 0.0026 % ID/g and the Blood/Bone ratio ([2]; 1 d) was 0.04 ± 0.02. For the same compound, the Kidney/Bone ratio ([2]; 1 d) was 46 ± 12, the “L. Intestine/Bone ratio” value ([2]; 1 d) was 10 ± 7 and the Liver/Bone ratio ([2]; 1 d) was 7.6 ± 1.6. For the same compound, the Muscle/Bone ratio ([2]; 1 d) was 0.6 ± 0.3, the “S. Intestine/Bone ratio” value ([2]; 1 d) was 4 ± 3 and the “biodistribution Bladder” value ([2]; 1 d) was 0.1599 ± 0.07394 % ID/g. For the same compound, the “biodistribution Blood” value ([2]; 1 d) was 0.0002 ± 0.00011 % ID/g, the “biodistribution Bone” value ([2]; 1 d) was 0.00484 ± 0.00076 % ID/g and the “biodistribution Heart” value ([2]; 1 d) was 0.0027 ± 0.00067 % ID/g. For the same compound, the “biodistribution Kidneys” value ([2]; 1 d) was 0.2226 ± 0.04562 % ID/g, the “biodistribution L. Intestine” value ([2]; 1 d) was 0.05022 ± 0.03098 % ID/g and the “biodistribution Liver” value ([2]; 1 d) was 0.0369 ± 0.00538 % ID/g. For the same compound, the “biodistribution Lungs” value ([2]; 1 d) was 0.0041 ± 0.00192 % ID/g, the “biodistribution Muscle” value ([2]; 1 d) was 0.00281 ± 0.00151 % ID/g and the “biodistribution Pancreas” value ([2]; 1 d) was 0.00337 ± 0.00062 % ID/g. For the same compound, the “biodistribution S. Intestine” value ([2]; 1 d) was 0.02037 ± 0.01362 % ID/g, the “biodistribution Spleen” value ([2]; 1 d) was 0.02143 ± 0.00625 % ID/g and the “biodistribution Stomach” value ([2]; 1 d) was 0.00294 ± 0.00146 % ID/g. For the same compound, the Blood/Bone ratio ([2]; 6 d) was 0.007 ± 0.015, the Carcass/Bone ratio ([2]; 6 d) was 0.60 ± 0.17 and the Kidney/Bone ratio ([2]; 6 d) was 10 ± 4. The “L. Intestine/Bone ratio” value ([2]; 6 d) was 0.34 ± 0.10, the Liver/Bone ratio ([2]; 6 d) was 4.2 ± 1.2 and the Muscle/Bone ratio ([2]; 6 d) was 0.16 ± 0.12. The “S. Intestine/Bone ratio” value ([2]; 6 d) was 0.24 ± 0.07, the “biodistribution Bladder” value ([2]; 6 d) was 0.1186 ± 0.05899 % ID/g and the “biodistribution Blood” value ([2]; 6 d) was 0.00003 ± 0.00006 % ID/g. The “biodistribution Bone” value ([2]; 6 d) was 0.00412 ± 0.00104 % ID/g, the “biodistribution Carcass” value ([2]; 6 d) was 0.0025 ± 0.0003 % ID/g and the “biodistribution Heart” value ([2]; 6 d) was 0.00158 ± 0.00062 % ID/g. For the same compound, the “biodistribution Kidneys” value ([2]; 6 d) was 0.04311 ± 0.01362 % ID/g, the “biodistribution L. Intestine” value ([2]; 6 d) was 0.0014 ± 0.00017 % ID/g and the “biodistribution Liver” value ([2]; 6 d) was 0.01724 ± 0.00259 % ID/g. For the same compound, the “biodistribution Lungs” value ([2]; 6 d) was 0.00142 ± 0.00102 % ID/g, the “biodistribution Muscle” value ([2]; 6 d) was 0.00067 ± 0.00046 % ID/g and the “biodistribution Pancreas” value ([2]; 6 d) was 0.0012 ± 0.00048 % ID/g. The “biodistribution S. Intestine” value ([2]; 6 d) was 0.001 ± 0.00011 % ID/g, the “biodistribution Spleen” value ([2]; 6 d) was 0.01313 ± 0.00408 % ID/g and the “biodistribution Stomach” value ([2]; 6 d) was 0.00045 ± 0.00010 % ID/g. For the same compound, the “biodistribution Bone” value ([2]; 6 d, listed as Lu-DOTA) was 0.004±0.001 % ID/g, the “residual activity in all tissues and carcass” value ([2]; 6 d p.i.) was 0.092±0.009 % ID and the “residual activity in carcass” value ([2]; 6 d p.i.) was 0.044±0.004 % ID. The clearance pathway ([2]; healthy female nude mice) was “excreted mostly via the renal-urinary clearance pathway” and the stability to transmetallation [3] was “stable to transmetallation with all of the metals investigated in this study”.
